Measurements: patent US10500193B2, “Combination therapy of HSP90 inhibitors with platinum-containing agents” (SYNTA PHARMACEUTICALS CORP., priority 2011, dated 2019)

Tested on: HCT-116 colorectal cancer cells
Assay: Cell viability (alamarBlue) assay in HCT-116 cells
Type: cell-based, Human
Settings: 72 hr exposure, four parameter logistic fit
Protocol: Human HCT-116 colorectal cancer cells (CRC) and MDA-MB-231 breast cancer cells were purchased from the American Type Culture Collection (Manassas, Va.) and grown following ATCC recommendations, in the presence of fetal bovine serum (10%), 2 mM L-glutamine and antibiotics (100 IU/ml penicillin and 100 μg/ml streptomycin, Sigma). Cells were maintained at 37° C., 5% CO2 atmosphere.
Cell viability was measured using the alamarBlue assay (Invitrogen). In brief, cells were plated in 96-well plates in triplicate at 5K cells per well and incubated at 37° C., 5% CO2 atmosphere for 24 hr prior to the addition of drug or vehicle (0.3% DMSO) to the culture medium. After 72 hr, 10 μl/well alamarBlue was added to the wells and incubated for an additional 3 hr at 37° C., 5% CO2 atmosphere. Fluorescence ([…]/590EM nM) was measured with a SpectraMax microplate reader (Molecular Devices) and the resulting data were used to calculate cell viability, normalized to vehicle control. […]
Combinations between ganetespib and cisplatin were then performed in HCT-116 cells concurrently based on the IC50 for each agent in matrix format with 54 combination pairs for each drug. The combined drugs, as well as each drug alone, were incubated with the cells for 3 days and the surviving fraction of cells relative to control was determined using the alamarBlue assay.

Row | Structure (SMILES) | IC50 [nM] | IC50 (Homo sapiens) [nM]
1 | N.N.[Cl][Pt][Cl] [cisplatin] | ~5700 | –
2 | CC(C)c1cc(-c2nnc(O)n2-c2ccc3c(ccn3C)c2)c(O)cc1O [ganetespib, 3-(2,4-DIHYDROXY-5- ISOPROPYL-PHENYL)-4-(1- METHYL-INDOL-5-YL)-5- HYDROXY-[1,2,4] TRIAZOLE] | – | ~32
